Consider three molecules from patent US8222022B2, “Tri-functionalized cryptophane biosensors” (The Trustees of the University of Pennsylvania, priority 2008, dated 2012).

Series [1] in a line: Xenon binding by fluorescence quenching. Conditions: 293 K, phosphate buffer. How it is done: Steady-state fluorescence spectra were acquired using a Varian Cary Eclipse fluorimeter equipped with a Peltier multicell holder for temperature control. Concentration measurements necessary for fluorescence work were obtained using an Agilent 8453 UV-Vis spectrophotometer. Xenon binding determination by fluorescence quenching was performed. The quantum yield of tri-acid cryptophane was measured relative to tryptophan.
The xenon affinity of tricarboxylate cryptophane was studied by fluorescence quenching (FIG. 2) and isothermal titration calorimetry (ITC) (FIG. 3). […] As in a previous fluorescence quenching study with TTPC, temperature-equilibrated solutions of xenon-saturated water were added sequentially by syringe to a septum-sealed fluorescence cuvette and fluorescence intensity measurements were taken. […]
A saturated xenon solution at 310 K ([Xe]=3.3 mM) was titrated into the septum-sealed cuvette by gas-tight syringe. […] In all cases, fluorescence spectra were collected after thermal equilibration at 293 K (FIG. 2)
The fluorescence maxima were fitted to a single-site binding model using the following relationship.
At xenon saturation, [Xe]=5.05 mM at 293 K and 1 atm, the cryptophane fluorescence was half quenched (Fo/F=2). No cryptophane impurities or concentration dependent phenomena were observed that might also contribute to partial fluorescence quenching. […]

The nature of series [2]: Xenon binding by isothermal titration calorimetry (ITC) in phosphate buffer. How it is done:
ITC samples were prepared and experiments were performed using a MicroCal VP-ITC titration microcalorimeter (Northampton, Mass.) at 293 K. Standard protocols and data analysis were used. Control enthalpograms are given in the appended figures.
In order to confirm the association constants obtained by fluorescence quenching, ITC experiments were performed.
(§1) Xenon binding was also determined by isothermal titration calorimetry (ITC), which directly measured the heat released during Xe association. ITC measurements were undertaken in 20 mM, pH 7.5 phosphate buffer at 293 K and 310 K as well as in human plasma at 310 K (FIG. 3).
The association constants obtained from fits of ITC data at 293 K (KA=1.73×10^4 M^−1, Table 5) and fluorescence quenching were in excellent agreement. […] This was likely a consequence of the 20 water molecules that make up the first solvation sphere of the Xe atom in aqueous solution.

Series [3] is described as follows: Aqueous solubility (visual observation of precipitation, dissolution in aqueous base). Conditions: visual observation of precipitation during titration.
Source text: Steric congestion near the carboxylic acid group decreases acidity by preventing efficient solvation of the carboxylate anion. […] Each acid group attached to TAAC can be approximated as being an acetic acid attached to a ˜1 nm diameter nonpolar sphere. Water molecules surrounding the nonpolar cryptophane surface must be ordered, a consequence of the hydrophobic effect. Carboxylate solvation must directly compete with this ordered solvation sphere necessary for the cryptophane core.
The nature of series [4]: Xenon binding by ITC in human plasma. Conditions: Plasma 310 K. The protocol: as §1
From Table 5 and the known thermodynamics of xenon partitioning into water, an upper limit of ΔH=−7.5 kcal/mol was calculated for the enthalpy of xenon binding to I. Thus, the measured ΔH of −6.04 kcal/mol, although larger than in buffer, appeared reasonable.

A further series addresses human isozyme II (CAII) (Homo sapiens, UniProt P00918). Nature of the series: Binding to carbonic anhydrase II in solution (ITC). Conditions: read-out: KD against CAII. From the text:
The ^129Xe isotope has a spin-½ nucleus, a >200 ppm chemical shift window in water, and a natural isotopic abundance of 26% (commercially available up to 86%), which makes it an appealing biomolecular probe for MRI. Moreover, ^129Xe can be laser polarized to enhance MRI signals ˜10,000-fold.

For series [5] the following is noted: comparison value; cited from earlier work.
Setting [6] is: 293 K, 20 mM pH 7.5 phosphate buffer.

`COc1cc2c3cc1OCCOc1cc4c(cc1OCC(=O)O)Cc1cc5c(OCC(=O)O)cc1Cc1cc(c(OCC(=O)O)cc1C4)OCCOc1cc(c(cc1OC)C3)Cc1cc(OC)c(cc1C2)OCCO5` [TAAC, Tri-Acetic Acid Cryptophane]: the “association constant (Xe) by fluorescence quenching” value in series [1] was 33,000±2000 M^−1. The “additional stabilization of the Xe@TAAC complex relative to Xe@TTPC” value in series [2] (293 K) is -1.55 kJ/mol. In addition, in series [2] (setting [6]), the “xenon association constant KA by ITC” value was 33,000±3000 M^−1, the “ΔG of xenon binding” value was -25.5 kJ/mol, the “ΔH of xenon binding” value was -18 ± 2.9 kJ/mol and the “ΔS of xenon binding” value is on record as 5.9 cal*mol^−1*K^−1. The xenon association constant in series [2] (293 K, by ITC and fluorescence quenching assay) was 33,000 M^−1. In addition, the xenon association constant in series [2] (310 K, extrapolated from the 293 K value) was ~50,000 M^−1. Further, in series [2] (ITC at 293 K (Table 2)), the KA amounted to 3.33 ± 0.28 M^−1 × 10^4, the TΔS was determined as 7.2 kJ/mol, the ΔG is -25.4 kJ/mol and the ΔH is -18.2 ± 2.76 kJ/mol. In addition, the pKa in the series “Acid-base titration” came to 4.1. The “deprotonations required for aqueous solubility” value in series [3] was “required all three acids to be deprotonated for aqueous solubility”.

For the molecule “tri-triazole propionate cryptophane [TTPC]”, in series [1], the “association constant (Xe) by fluorescence quenching” value is 17,000±1800 M^−1. Besides, in series [2] (Buffer 293 K), the KA amounted to 1.73 ± 0.17 M^−1 × 10^4, the TΔS came out at 10.7 kJ/mol, the ΔG was -23.8 kJ/mol and the ΔH is -13.1 ± 0.837 kJ/mol. In series [2] (Buffer 310 K), the KA is 3.01 ± 0.26 M^−1 × 10^4, the TΔS was determined as 11.7 kJ/mol, the ΔG was -26.6 kJ/mol and the ΔH is -14.9 ± 0.544 kJ/mol. For the same molecule, in series [2] (ITC at 293 K (Table 2)), the KA is reported as 1.70 M^−1 × 10^4, the TΔS was determined as 10.7 kJ/mol, the ΔG was -23.8 kJ/mol and the ΔH is -13.1 kJ/mol. Besides, the “upper limit of ΔH for the enthalpy of xenon binding” value in series [2] (calculated from Table 5 and known thermodynamics of xenon partitioning into water) is ≤ -31.4 kJ/mol. Besides, the “ΔS of xenon binding” value in series [2] (phosphate buffer, 293 and 310 K) turned out to be 9.0 cal/mol K. In series [4], the KA worked out at 2.19 ± 0.22 M^−1 × 10^4, the TΔS came out at 0.502 kJ/mol, the “TΔS (contribution of entropy)” value is recorded as 0.12 and the “measured ΔH of xenon binding” value is -25.3 kJ/mol. For the same molecule, in series [4], the ΔG is -25.8 kJ/mol and the ΔH was -25.3 ± 1.38 kJ/mol. Besides, on human isozyme II (CAII), the Kd was found to be 0.06 ± 0.02 µM.

With `COc1ccccc1OCC(=O)O` [2-(2-methoxyphenoxy)acetic acid], the “pKa of analogous acid (comparison)” value in series [5] is recorded as 3.23.
